Experimental data published in PubChem BioAssay (NCI).
Several values for one entry are separate records, joined by “and”; a condition that tells them apart may be missing. Identical values can stand only once.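 Each compound was tested at five concentrations against cells in 96-well plates for 48 hours. Here, GI50 denotes the concentration required for 50% inhibition of growth. At the TGI there is no net growth.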

Legend:
Test in all cases: DTP human tumour cell line panel, 48 h
SW-620 colon = tested on: SW-620 colon
T-47D breast = tested on: T-47D breast
IGROV1 ovarian = tested on: IGROV1 ovarian
SK-MEL-2 melanoma = tested on: SK-MEL-2 melanoma
CAKI-1 renal = tested on: CAKI-1 renal
HOP-62 NSCLC = tested on: HOP-62 NSCLC
OVCAR-3 ovarian = tested on: OVCAR-3 ovarian
KM12 colon = tested on: KM12 colon
K-562 leukemia = tested on: K-562 leukemia
SK-OV-3 ovarian = tested on: SK-OV-3 ovarian

SMILES	GI50 (SW-620 colon)	TGI (SW-620 colon) [µM]	GI50 (T-47D breast) [µM]	TGI (T-47D breast) [µM]	GI50 (IGROV1 ovarian) [µM]	TGI (IGROV1 ovarian) [µM]	GI50 (SK-MEL-2 melanoma) [µM]	TGI (SK-MEL-2 melanoma) [µM]	GI50 (CAKI-1 renal) [µM]	TGI (CAKI-1 renal) [µM]	GI50 (HOP-62 NSCLC) [µM]	TGI (HOP-62 NSCLC) [µM]	GI50 (OVCAR-3 ovarian)	TGI (OVCAR-3 ovarian) [µM]	GI50 (KM12 colon) [µM]	TGI (KM12 colon) [µM]	GI50 (K-562 leukemia) [µM]	TGI (K-562 leukemia) [µM]	GI50 (SK-OV-3 ovarian) [µM]	TGI (SK-OV-3 ovarian) [µM]
COc1ccc2c(c1)C(=O)c1c-2c(Nc2ccc(C(C)=O)cc2)nc2ccccc12	> 100 µM	> 100	77.2	> 100	22.9	92.8	97.7	> 100	> 100	> 100	3.96	16.2	> 100 µM	> 100	> 100	> 100	> 100	> 100	–	–
CC(C)(C#N)c1cc(F)cc(C(=O)Nc2cc(Nc3ncccc3-c3ncnc4nc[nH]c34)ccc2F)c1	1.13 µM	> 10	2.9	> 10	0.684	> 10	0.144	1.17	–	–	0.475	> 10	5.5 µM	> 10	1.73	> 10	0.606	> 10	> 10	> 10
O=c1cccccc1NCCCCCCNc1cccccc1=O	–	> 100	–	–	–	> 100	–	> 100	–	> 100	–	> 100	–	> 100	–	> 100	–	> 100	–	> 100
CC(=O)O[C@H](C[C@H](C(C)C)N(C)C(=O)[C@@H](NC(=O)[C@H]1CCCCN1C)C(C)C)c1nc(C(=O)N[C@@H](Cc2ccccc2)C[C@H](C)C(=O)O)c(C(C)C)s1	< 0.00333 µM	> 33.3	–	–	< 0.00333	> 33.3	< 0.00333	19.2	< 0.00333	> 27.4	< 0.00333	> 33.3	< 0.00333 µM	0.00598	< 0.00333	–	< 0.00333	> 33.3	< 0.00333	> 33.3
CC(=O)c1c(C)n(C)c2c1nnc1ccccc12	–	> 100	–	> 100	–	–	–	> 100	–	> 100	–	> 100	–	> 100	–	> 100	–	–	–	> 100
O=C(c1ccccc1)c1ccc(OCCOc2ccc(Nc3ccccc3)cc2)cc1	–	> 100	–	–	–	> 100	–	> 100	–	> 100	–	81.2	–	> 100	–	> 100	–	> 100	–	64.4
CC/C(=C(/CC)c1ccc([O-])cc1)c1ccc([O-])cc1.CC/C(=C(\CC)c1ccc([O-])cc1)c1ccc([O-])cc1.O=C([CH-]C(=O)c1ccccc1)c1ccccc1.O=C([CH-]C(=O)c1ccccc1)c1ccccc1.O=C([CH-]C(=O)c1ccccc1)c1ccccc1.O=C([CH-]C(=O)c1ccccc1)c1ccccc1.[Ti+4].[Ti+4]	21.4 µM	51.6	–	–	41.9	> 100	25.8	73.5	23.5	58.5	22.5	51.3	24.9 µM	> 100	26.3	> 100	23.9	> 100	30.8	74.4
COc1cnc2c(c1)C(=O)c1c-2n(CCCN2CCC(O)CC2)c(=O)c2cc(F)ccc12	0.107 µM	2.1	0.0996	0.86	0.301	2.24	0.61	2.86	–	–	0.142	0.645	0.254 µM	1.18	–	–	0.216	2.31	0.22	0.783
CCOC(=O)C1=C(O)CSC1=Nc1ccccc1	–	> 100	–	–	–	> 100	–	> 100	–	> 100	–	> 100	–	> 100	–	> 100	–	> 100	–	> 100
CC(=O)c1cccc(NC(=O)C(=O)C(C2OC(=O)c3ccccc32)[N+](=O)[O-])c1 (stereo unspecified)	–	> 100	–	–	–	> 100	–	> 100	–	> 100	–	> 100	–	> 100	–	> 100	–	> 100	–	> 100
COc1ccc(C(=O)C(C(=O)C(=O)Nc2ccc(Cl)c(Cl)c2)c2ccc(OC)cc2)cc1 (stereo unspecified)	–	> 100	–	–	–	> 100	–	> 100	–	> 100	–	> 100	–	> 100	–	> 100	–	> 100	–	–
CN[C@@H](C)[C@@H](N)c1ccccc1	–	> 100	–	–	–	> 100	–	–	–	> 100	–	–	–	> 100	–	–	–	> 100	–	> 100
Cc1ccc(Nc2n[nH]c(=S)s2)cc1	–	> 100	–	> 100	–	–	–	–	–	> 100	–	> 100	–	> 100	–	> 100	–	> 100	–	> 100
CCCC[N+](CCCC)=c1ccc2nc3c(C)cc(N(CC)CC)cc3sc-2c1	0.245 µM	1.58	–	–	–	–	–	–	0.183	1.1	–	–	0.12 µM	1.15	0.113	1.34	–	–	0.28	1.05
NNC(=S)N/N=C(/C(=O)Nc1cc(Cl)ccc1Cl)C1C(=O)Nc2ccccc2S1=O (stereo unspecified)	–	> 100	–	–	–	> 100	–	> 100	–	> 100	–	> 100	–	> 100	–	> 100	–	> 100	–	> 100
O=C1N(c2ccccc2)C(=O)C2(SC=NN2Cc2ccccc2)N1c1ccccc1 (stereo unspecified)	–	> 100	–	–	–	> 100	–	–	–	> 100	–	> 100	–	> 100	–	> 100	–	> 100	–	> 100
C1C[S][Ge]2([S]CCO1)[S]CCOCC[S]2	–	–	–	–	> 100	> 100	> 100	> 100	> 100	> 100	> 100	> 100	–	–	–	–	> 100	> 100	> 100	> 100
O=C(CSC(c1ccccc1)c1ccccc1)N/N=C/c1cccc(Cl)c1	15 µM	29.2	–	–	15.2	28.8	15.7	30.1	23.4	52.5	17.3	31.6	21.4 µM	38.9	17.3	33.2	21.6	41.9	–	–

SMILES	GI50 (SW-620 colon)	TGI (SW-620 colon) [µM]	GI50 (T-47D breast) [µM]	TGI (T-47D breast) [µM]	GI50 (IGROV1 ovarian) [µM]	TGI (IGROV1 ovarian) [µM]	GI50 (SK-MEL-2 melanoma) [µM]	TGI (SK-MEL-2 melanoma) [µM]	GI50 (CAKI-1 renal) [µM]	TGI (CAKI-1 renal) [µM]	GI50 (HOP-62 NSCLC) [µM]	TGI (HOP-62 NSCLC) [µM]	GI50 (OVCAR-3 ovarian)	TGI (OVCAR-3 ovarian) [µM]	GI50 (KM12 colon) [µM]	TGI (KM12 colon) [µM]	GI50 (K-562 leukemia) [µM]	TGI (K-562 leukemia) [µM]	GI50 (SK-OV-3 ovarian) [µM]	TGI (SK-OV-3 ovarian) [µM]
Cc1c(C(=O)C/C(=N/NC(=O)C[n+]2ccccc2)C(=O)Nc2ccccc2)[n+](=O)c2ccccc2n1O	–	> 100	–	–	–	> 100	–	> 100	–	> 100	–	> 100	–	> 100	–	> 100	–	> 100	–	> 100
CC(=O)O[C@]1(C)OC(=O)[C@@H](C)N1[N+](=O)[O-]	–	> 100	–	–	–	> 100	–	> 100	–	–	–	> 100	–	> 100	–	> 100	–	> 100	–	> 100
COc1c(NC(C)=O)cc(C)cc1NC(C)=O	–	> 100	–	–	–	–	–	> 100	–	> 100	–	> 100	–	> 100	–	> 100	–	> 100	–	> 100
O=C1C2=Nc3ccccc3C(O)N2c2ccccc21 (stereo unspecified)	–	> 100	–	> 100	–	> 100	–	–	–	> 100	–	> 100	–	56.3	–	> 100	–	> 100	–	> 100
Cc1cc(C2=NNC(=O)Cc3cc4c(cc32)OCCO4)cc(C)c1N	0.965 µM	> 100	4.41	> 100	3	> 100	3.42	> 100	0.901	7.66	2.72	> 100	0.892 µM	5.6	0.818	> 100	–	–	2.44	23.6
C[C@]12CCc3nonc3C1CC[C@@H]1C2CC[C@]2(C)NC(=O)CCC12 (stereo partly specified)	–	> 100	–	–	–	> 100	–	> 100	–	> 100	–	> 100	–	> 100	–	> 100	–	> 100	–	> 100
C/C(=N\N=C(\[Se])N1CCN(c2ccccn2)CC1)c1ccccn1	–	12.4	–	–	–	–	–	2.36	0.0408	21.3	–	–	–	–	0.239	18.5	0.00114	–	–	9.82
CC1(C)CCc2cc3c(cc2O1)OCC1c2cc4c(cc2OC31)OCO4 (stereo unspecified)	–	> 100	–	–	–	> 100	–	–	–	> 100	–	> 100	–	> 100	–	> 100	–	> 100	–	> 100
CC1CCN(CCCCCOc2ccc3oc4cc(Cl)ccc4c(=O)c3c2)CC1	6.16 µM	13.3	6.86	16.4	6.71	15.3	9.3	17.5	–	–	–	–	7 µM	14.2	6.26	14.4	1.58	6.09	8.45	15.8
C=CC[P+](c1ccccc1)(c1ccccc1)c1ccccc1	5.64 µM	> 100	–	–	9.74	> 100	3.36	16.4	52.2	> 100	12.1	> 100	1.99 µM	> 100	1.46	> 100	2.12	> 100	19.2	> 100
COc1ccc2c(c1)[n+]([O-])c(-c1ccccc1)c(N)[n+]2[O-]	–	> 100	–	–	–	> 100	–	> 100	–	92.3	–	96.7	–	> 100	–	> 100	–	> 100	–	> 100
O=C(c1cc2ccccc2o1)N(Cc1ccccc1)c1ccccc1	–	32.4	–	–	–	> 100	–	> 100	–	55.5	–	71.4	–	41.2	–	46.6	–	40	–	91.2
CC(C)(C)CC(C)(C)c1cc2c(O)c(c1)Cc1cc(C(C)(C)CC(C)(C)C)cc(c1O)Cc1cc(C(C)(C)CC(C)(C)C)cc(c1O)Cc1cc(C(C)(C)CC(C)(C)C)cc(c1O)Cc1cc(C(C)(C)CC(C)(C)C)cc(c1O)Cc1cc(C(C)(C)CC(C)(C)C)cc(c1O)C2	–	> 100	–	–	–	> 100	–	> 100	–	–	–	> 100	–	> 100	–	> 100	–	> 100	–	–
COc1ccc2nc3cc(Cl)ccc3c(N3CCN(c4ccnc(N5CCOCC5)n4)CC3)c2c1	4.71 µM	> 100	–	–	> 100	> 100	53.3	> 100	> 100	> 100	63.1	> 100	4.14 µM	57.3	19.3	> 100	2.91	> 100	> 100	> 100
COC(=O)C1=C(C(=O)OC)C23CC1C1C(C(=O)OC)=C(C(=O)OC)C12C1C=CC3C2C(=O)OC(=O)C21 (stereo unspecified)	–	> 100	–	–	–	> 100	–	> 100	–	–	–	> 100	–	17.6	–	> 100	–	> 100	–	–
O=C(CCCN1CCOCC1)Nc1ccc(Cn2nnc3c2C(=O)c2nnn(Cc4ccc(NC(=O)CCCN5CCOCC5)cc4)c2C3=O)cc1	2.85 µM	> 100	–	–	1.95	4.62	2.04	4.15	> 100	> 100	> 100	> 100	0.348 µM	1.54	6.99	> 100	4.28	> 100	> 100	> 100
CCOc1cc2c(cc1O)/C(=N\O)C[C@@H]1[C@@H]2CC[C@]2(C)[C@@H](O)CC[C@@H]12	0.0234 µM and 0.0382 µM	> 100	–	–	0.296	> 100	–	55.6	–	–	–	> 100	0.0114 µM and 0.0299 µM	–	0.0797	–	0.00978	> 94.1	–	–
O=C1OCCC1C(O)C1c2ccccc2-c2ccccc21 (stereo unspecified)	–	> 100	–	–	–	> 100	–	> 100	–	> 100	–	> 100	–	> 100	–	> 100	–	> 100	–	> 100
